Source: US20250034216A1, “STEREOSELECTIVE COVALENT LIGANDS FOR ONCOGENIC AND IMMUNOLOGICAL PROTEINS” (The Scripps Research Institute, priority 2021, published 2025)

Assays:
Assay in all cases: IA-DTB cysteine engagement
Assay type in all cases: binding
Details in all cases: 22Rv1 cells, 20 μM probe, 1 h, relative to DMSO
DHRS13_C174 = molecular target: T1, DHRS13_C174 (Homo sapiens, UniProt Q6UX07)
T1 construct: endogenous in cells; host or cells: 22Rv1
T1 sequence (Q6UX07 26-377): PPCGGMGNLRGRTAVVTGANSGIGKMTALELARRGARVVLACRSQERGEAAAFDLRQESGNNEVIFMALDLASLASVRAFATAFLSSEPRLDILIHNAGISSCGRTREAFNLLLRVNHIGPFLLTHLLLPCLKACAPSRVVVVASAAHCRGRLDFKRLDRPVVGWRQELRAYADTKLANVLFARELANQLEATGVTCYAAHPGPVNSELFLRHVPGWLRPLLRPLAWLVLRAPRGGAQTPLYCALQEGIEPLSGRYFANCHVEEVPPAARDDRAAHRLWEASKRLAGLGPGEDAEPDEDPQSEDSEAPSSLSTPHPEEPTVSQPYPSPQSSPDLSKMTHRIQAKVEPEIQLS
Summary of the method: (§1)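 In-situ probe treatment of cells; lysate 2 mg/mL, IA-DTB 1 h RT; MeOH/CHCl3 precipitation, DTT/iodoacetamide, trypsin; streptavidin enrichment; TMT labeling, high-pH fractionation. Ratio = TMT reporter intensity / mean DMSO channels, median-normalized.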

EPHX4_C287 = molecular target: T2, EPHX4_C287 (Homo sapiens, UniProt Q8IUS5)
T2 construct: endogenous in cells; host or cells: 22Rv1
T2 sequence (Q8IUS5 1-362): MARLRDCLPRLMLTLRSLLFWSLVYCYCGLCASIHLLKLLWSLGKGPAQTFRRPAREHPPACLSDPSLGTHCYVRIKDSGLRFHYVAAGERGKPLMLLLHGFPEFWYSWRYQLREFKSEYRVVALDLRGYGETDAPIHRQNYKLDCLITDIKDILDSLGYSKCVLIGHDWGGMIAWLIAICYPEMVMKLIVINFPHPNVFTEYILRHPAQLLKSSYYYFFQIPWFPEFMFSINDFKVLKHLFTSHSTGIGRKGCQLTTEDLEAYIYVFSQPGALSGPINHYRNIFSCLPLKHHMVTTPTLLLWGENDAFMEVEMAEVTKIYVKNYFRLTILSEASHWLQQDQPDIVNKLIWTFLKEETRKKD
Summary of the method: as §1

NT5DC1_C119 = molecular target: T3, NT5DC1_C119 (Homo sapiens, UniProt Q5TFE4)
T3 construct: endogenous in cells; host or cells: 22Rv1
T3 sequence (Q5TFE4 1-455): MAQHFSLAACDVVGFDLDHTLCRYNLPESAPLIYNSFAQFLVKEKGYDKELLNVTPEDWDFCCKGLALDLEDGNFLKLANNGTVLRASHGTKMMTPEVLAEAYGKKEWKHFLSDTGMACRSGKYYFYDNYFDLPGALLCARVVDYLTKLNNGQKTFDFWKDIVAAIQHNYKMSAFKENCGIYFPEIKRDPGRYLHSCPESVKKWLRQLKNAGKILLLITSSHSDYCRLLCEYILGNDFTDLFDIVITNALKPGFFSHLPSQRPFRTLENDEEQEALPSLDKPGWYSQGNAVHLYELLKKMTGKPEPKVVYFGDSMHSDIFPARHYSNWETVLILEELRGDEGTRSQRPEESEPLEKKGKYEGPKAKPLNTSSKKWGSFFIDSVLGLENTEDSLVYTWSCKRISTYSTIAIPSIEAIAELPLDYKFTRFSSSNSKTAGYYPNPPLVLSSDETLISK
Summary of the method: as §1

TTC3_C109 = molecular target: T4, TTC3_C109 (Homo sapiens, UniProt P53804)
T4 construct: endogenous in cells; host or cells: 22Rv1
T4 sequence (P53804 whole entry): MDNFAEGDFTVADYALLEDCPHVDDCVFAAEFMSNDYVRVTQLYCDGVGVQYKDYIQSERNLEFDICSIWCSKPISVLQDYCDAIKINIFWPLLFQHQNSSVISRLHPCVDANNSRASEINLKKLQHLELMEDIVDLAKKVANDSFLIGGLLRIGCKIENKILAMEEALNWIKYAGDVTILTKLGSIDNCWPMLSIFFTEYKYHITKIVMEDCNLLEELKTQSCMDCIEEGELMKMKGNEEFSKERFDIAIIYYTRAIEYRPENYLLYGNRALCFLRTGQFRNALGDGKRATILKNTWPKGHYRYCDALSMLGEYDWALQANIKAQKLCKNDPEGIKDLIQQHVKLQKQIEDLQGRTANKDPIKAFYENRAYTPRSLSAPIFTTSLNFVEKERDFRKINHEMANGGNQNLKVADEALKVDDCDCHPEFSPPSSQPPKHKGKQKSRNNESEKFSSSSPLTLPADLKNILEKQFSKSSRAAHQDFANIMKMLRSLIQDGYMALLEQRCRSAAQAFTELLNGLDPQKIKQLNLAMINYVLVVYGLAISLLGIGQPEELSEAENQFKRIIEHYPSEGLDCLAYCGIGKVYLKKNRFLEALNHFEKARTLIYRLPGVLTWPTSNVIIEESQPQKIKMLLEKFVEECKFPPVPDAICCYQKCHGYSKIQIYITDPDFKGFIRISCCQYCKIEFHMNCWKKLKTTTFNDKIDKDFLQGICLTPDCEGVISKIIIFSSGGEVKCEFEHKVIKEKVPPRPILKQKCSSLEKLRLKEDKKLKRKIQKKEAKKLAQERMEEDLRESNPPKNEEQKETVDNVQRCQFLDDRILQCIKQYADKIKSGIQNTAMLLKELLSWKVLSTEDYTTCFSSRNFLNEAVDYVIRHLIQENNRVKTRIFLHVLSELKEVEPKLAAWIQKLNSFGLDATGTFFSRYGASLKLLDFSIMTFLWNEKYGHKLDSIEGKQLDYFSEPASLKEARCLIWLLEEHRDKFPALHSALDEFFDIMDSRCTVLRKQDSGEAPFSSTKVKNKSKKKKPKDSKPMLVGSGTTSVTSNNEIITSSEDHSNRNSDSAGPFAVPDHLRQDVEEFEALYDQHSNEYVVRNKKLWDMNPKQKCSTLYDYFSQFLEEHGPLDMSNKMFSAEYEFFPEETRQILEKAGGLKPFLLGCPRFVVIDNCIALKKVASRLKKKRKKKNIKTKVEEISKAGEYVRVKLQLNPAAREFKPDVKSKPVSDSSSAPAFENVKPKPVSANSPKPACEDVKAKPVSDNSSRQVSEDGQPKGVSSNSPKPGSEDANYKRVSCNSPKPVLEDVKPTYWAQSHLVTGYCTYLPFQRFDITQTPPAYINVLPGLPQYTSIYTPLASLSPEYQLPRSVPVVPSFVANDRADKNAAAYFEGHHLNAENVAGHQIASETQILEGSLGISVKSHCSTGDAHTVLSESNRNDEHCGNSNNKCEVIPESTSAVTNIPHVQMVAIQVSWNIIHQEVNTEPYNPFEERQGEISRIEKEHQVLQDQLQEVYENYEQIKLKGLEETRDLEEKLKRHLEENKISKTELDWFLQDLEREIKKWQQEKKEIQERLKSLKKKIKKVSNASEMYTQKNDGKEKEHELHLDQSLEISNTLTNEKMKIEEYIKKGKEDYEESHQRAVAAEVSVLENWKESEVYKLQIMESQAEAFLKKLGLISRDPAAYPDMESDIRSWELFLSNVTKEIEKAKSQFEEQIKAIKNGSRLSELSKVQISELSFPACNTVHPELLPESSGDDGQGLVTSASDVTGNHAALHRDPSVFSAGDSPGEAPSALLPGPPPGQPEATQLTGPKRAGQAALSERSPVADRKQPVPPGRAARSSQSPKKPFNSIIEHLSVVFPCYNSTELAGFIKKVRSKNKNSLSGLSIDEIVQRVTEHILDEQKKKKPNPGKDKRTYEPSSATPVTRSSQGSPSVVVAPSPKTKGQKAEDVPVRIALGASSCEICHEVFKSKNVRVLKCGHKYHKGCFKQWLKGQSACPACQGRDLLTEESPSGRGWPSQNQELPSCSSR
Summary of the method: as §1

C=CC(=O)N1C[C@@H](c2ccc(Br)cc2)[C@H]1C(=O)Nc1cccc2cccnc12 [MY-1A, (2S,3R)-1-acryloyl-3-(4-bromophenyl)-N-(quinolin-8-yl)azetidine-2-carboxamide]
% engagement DHRS13_C174 (DHRS13_C174): 60.25%
% engagement EPHX4_C287 (EPHX4_C287): 23.5%
% engagement NT5DC1_C119 (NT5DC1_C119): 49%
% engagement TTC3_C109 (TTC3_C109): 80.5%

C=CC(=O)N1C[C@H](c2ccc(Br)cc2)[C@@H]1C(=O)Nc1cccc2cccnc12 [MY-1B, (2R,3S)-1-acryloyl-3-(4-bromophenyl)-N-(quinolin-8-yl)azetidine-2-carboxamide]
% engagement DHRS13_C174 (DHRS13_C174): 69.75%
% engagement EPHX4_C287 (EPHX4_C287): 44.5%
% engagement NT5DC1_C119 (NT5DC1_C119): 63.25%
% engagement TTC3_C109 (TTC3_C109): 54.5%

C=CC(=O)N1C[C@H](c2ccc(Br)cc2)[C@H]1C(=O)Nc1cccc2cccnc12 [MY-3A, (2S,3S)-1-acryloyl-3-(4-bromophenyl)-N-(quinolin-8-yl)azetidine-2-carboxamide]
% engagement DHRS13_C174 (DHRS13_C174): 42%
% engagement EPHX4_C287 (EPHX4_C287): 28%
% engagement NT5DC1_C119 (NT5DC1_C119): 93.5%
% engagement TTC3_C109 (TTC3_C109): 4.5%

C=CC(=O)N1C[C@H](c2ccc(Br)cc2)[C@H]1C(=O)Nc1cccc2cccnc12 [MY-3B, (2S,3S)-1-acryloyl-3-(4-bromophenyl)-N-(quinolin-8-yl)azetidine-2-carboxamide]
% engagement DHRS13_C174 (DHRS13_C174): 61.75%
% engagement EPHX4_C287 (EPHX4_C287): 86.5%
% engagement NT5DC1_C119 (NT5DC1_C119): 79.5%
% engagement TTC3_C109 (TTC3_C109): 21.5%
